Source: patent publication US20070155803A1, “Protease inhibitors” (ProZymex A/S, priority 2003, published 2007)
Square brackets hold non-standard residues; d marks the D form. Peptide text beside a SMILES is read from it. Phe(3-F) = N[C@@H](Cc1cccc(F)c1)C(=O)O; hPhe = N[C@@H](CCc1ccccc1)C(=O)O; Abu = CC[C@H](N)C(=O)O; azaGly = NNC(=O)O

What was measured:
Type in all cases: biochemical
[1] = molecular target: T1, Human liver cathepsin B (Homo sapiens, UniProt P07858); test: Human liver cathepsin B assay
T1 construct: Human liver cathepsin B (Enzyme System Products, CAT-B); purchased Enzyme System Products CAT-B; host or cells: human liver
Method: Human Liver Cathepsin B Assay
Using this assay, the selectivity of a compound of the invention for hDPP-I over human cathepsin B was determined, using a fluorogenic substrate.
0.1 M MES buffer (1.95 g; M=195.2) and 1 mM EDTA (37 mg; M=372.2) were mixed in 100 mL H2O and pH adjusted to 6.1. DTT (10 μL, 0.5 M) was added for activation of the enzyme […].
Human liver cathepsin B (Enzyme System Products, CAT-B; stock 25 μg/54 μL=463 ng/μL). One aliquot was diluted to a concentration of 40 ng/μL by adding 53 μL assay buffer (without DTT). Just prior to experiment, two more dilution steps were performed: 4 ng/μL: 5 μL (40 ng/μL)+45 μL buffer (without DTT) 0.1 ng/μL: 5 μL (4 ng/μL)+[…] buffer (without DTT)
Boc-Leu-Arg-Arg-AFC.2TFA (Enzyme System Products AFC113). Stock solution made (20 mM; 15.1 mg dissolved in 1 ml DMSO). Diluted further in H2O to 10 mM. Km for this substrate has been determined to be 600 μM.
The assay was performed in 96-well plates. 84 μL assay buffer was added to the well followed by 10 μL 1% DMSO in assay buffer (control) or a compound, of the invention (10 μM in the assay). […] The excitation wavelength was 400 nm, and the emission was measured at 505 nm for 10-20 minutes at 37° C. […] In the software (SOFTmax Pro) used for data collection from the fluorometer (Molecular Devices: Gemini XS), it was ensured that the measured slopes were linear (R^2>0.99). […]

[2] = molecular target: T2, Human cathepsin G (Homo sapiens, UniProt P08311); test: Human cathepsin G assay
T2 construct: purchased Calbiochem 219373
T2 sequence (P08311 21-244): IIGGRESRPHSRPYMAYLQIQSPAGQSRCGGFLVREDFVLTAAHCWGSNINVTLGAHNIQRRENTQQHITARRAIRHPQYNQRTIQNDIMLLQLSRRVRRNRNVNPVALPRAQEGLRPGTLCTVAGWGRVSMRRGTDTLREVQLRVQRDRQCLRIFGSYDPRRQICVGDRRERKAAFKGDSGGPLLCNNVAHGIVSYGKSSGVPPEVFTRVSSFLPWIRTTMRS
Method: Using this assay, the selectivity of a compound of the invention for hDPP-I over human cathepsin G was determined, using a chromogenic substrate.
Buffer containing 100 mM Tris/HCl pH 8.3 (25° C.), 500 mM NaCl, and 20 mM CaCl2 prepared. DTNB (5,5′-dithio-bis(2-nitrobenzoic acid)) was added just prior to experiment (10 μL 1.25 mM/well).
Human cathepsin G (Calbiochem Cat # 219373, 50 ng/μL 0.1 mU/μL stock) was reconstituted in 50 mM sodium acetate and 150 mM NaCl (pH 5.5), and stored at −20° C. Diluted to 2 ng/μL in buffer just prior to experiment.
Suc-Ala-Ala-Pro-Phel-SBzl (Bachem Cat # 4009924.0050) diluted to 1 mM in buffer from 10 mM stock in buffer. Km determined to 100-200 μM.
The assay was performed in 96-well plates. 60 μL assay buffer was added to the well followed by 10 μL DTNB (1.25 mM), and 10 μL of a compound of the invention (100 μM, diluted with assay buffer to give 10 μM in the assay). Then 10 μL (2 ng/μL) enzyme was added, and 10 min. later (at 37° C.) 10 μL substrate (100 μM final concentration) was added. The absorption was measured at 410 nm for 10 minutes at 37° C. Each measurement was made in duplicate. In the software (SOFTmax Pro) used for data collection from the UV-spectrometer it was ensured that the measured slopes were linear (R^2>0.99). […]

[3] = molecular target: T3, Human liver cathepsin L (Homo sapiens, UniProt P07711); test: Human liver cathepsin L assay
T3 construct: Human liver cathepsin L (Enzyme System Products, Catl-1); purchased Enzyme System Products Catl-1; host or cells: human liver
Method: Human Liver Catheosin L Assay
Using this assay, the selectivity of a compound of the invention for hDPP-I over human cathepsin L was determined, using a fluorogenic substrate.
Human liver cathepsin L (Enzyme System Products, Catl-1; 5 μL of a 1.61 μU/IμL stock) was solubilized in 2500 μL enzyme buffer. Prior to running experiment, 1 μL 0.5 M DTT/100 μL enzyme Solution was added. inoubated for 5 minutes on ice then added to reaction mixture.
Z-Phe-ARG-AFC*TFA (Enzyme System Products AF052; 15.6 mg) was dissolved in 1 mL DMSO, giving a 20 mM solution.
The assay was performed in 96-well plates. 50 μL assay buffer was added to the well followed by 25 μL reference inhibitor (cystatin, stock 1 mg/mL, diluted with assay buffer to give 25 nM in assay) or a compound of the invention (diluted with assay buffer to give 10 μM in the assay). Then 25 μL (80 nU) enzyme was added, and 1 min. later (at 37° C.) 100 μL substrate (10 μM in the assay) was added. The excitation wavelength was 400 nm, and the emission was measured at 505 nm for 10-20 minutes at 37° C. Each measurement was made in duplicate. In the software (SOFTmax Pro) used for data collection from the fluorometer (Molecular Devices: Gemini XS), it was ensured that the measured slopes were linear (R^2>0.99). Data were exported to GraphPad Prism and nonlinear regression was performed using the option Sigmoidal dose-response (variable slope).

T3 sequence (P07711 114-333): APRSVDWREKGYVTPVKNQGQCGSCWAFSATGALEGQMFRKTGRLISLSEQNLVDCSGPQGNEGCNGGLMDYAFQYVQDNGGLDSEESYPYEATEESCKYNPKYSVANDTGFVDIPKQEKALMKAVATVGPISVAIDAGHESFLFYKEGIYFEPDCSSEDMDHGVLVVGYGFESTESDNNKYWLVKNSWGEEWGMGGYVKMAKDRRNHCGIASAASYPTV

**Q.** Which results are given for `CC[C@H](N)C(=O)NNC(=O)N[C@@H](CCc1ccccc1)C(=O)N[C@@H](Cc1cccc(F)c1)C(N)=O` [Example 11, 1-(2S-2-Aminobutanoyl)-4-[2S-N-[2S-3-(m-fluorophenyl)propan-2-yl-amide]-4-phenylbutan-2-yl-amide]semicarbazide] (H-[Abu][azaGly][hPhe][Phe(3-F)]-NH2)?
**A.** Inhibition of Cathepsin B (in words) [1]: does not inhibit; IC50 ([1]; human liver cathepsin B, read-out: Secondary enzymatic screening (10 μM cutoff or IC50) Cathepsin B): 4.5 µM; Inhibition of Cathepsin G (in words) [2]: does not inhibit; IC50 ([2]; human cathepsin G, 10 μM cutoff, read-out: Secondary enzymatic screening (10 μM cutoff or IC50) Cathepsin G): > 10 µM; Inhibition of Cathepsin L (in words) [3]: does not inhibit; IC50 ([3]; human liver cathepsin L, 10 μM cutoff, read-out: Secondary enzymatic screening (10 μM cutoff or IC50) Cathepsin L): > 10 µM
